# Measured values: patent US7595405B2, “Tetrazole-substituted arylamides as P2X3 and P2X2/3 antagonists” (Roche Palo Alto LLC, priority 2006, dated 2009)
# pIC50: −log10 of the molar value.
# Key:
# rat P2X3 receptor = target: T1, rat P2X3 receptor (Rattus norvegicus, UniProt P49654); experiment: P2X3 FLIPR (Fluorometric Imaging Plate Reader) assay; type: cell-based; conditions: CHO-K1 cells transfected with rat P2X3, agonist α,β-meATP 1 μM
# T1 construct: expressed in transfected cells; host or cells: CHO-K1
# T1 sequence (P49654 1-397): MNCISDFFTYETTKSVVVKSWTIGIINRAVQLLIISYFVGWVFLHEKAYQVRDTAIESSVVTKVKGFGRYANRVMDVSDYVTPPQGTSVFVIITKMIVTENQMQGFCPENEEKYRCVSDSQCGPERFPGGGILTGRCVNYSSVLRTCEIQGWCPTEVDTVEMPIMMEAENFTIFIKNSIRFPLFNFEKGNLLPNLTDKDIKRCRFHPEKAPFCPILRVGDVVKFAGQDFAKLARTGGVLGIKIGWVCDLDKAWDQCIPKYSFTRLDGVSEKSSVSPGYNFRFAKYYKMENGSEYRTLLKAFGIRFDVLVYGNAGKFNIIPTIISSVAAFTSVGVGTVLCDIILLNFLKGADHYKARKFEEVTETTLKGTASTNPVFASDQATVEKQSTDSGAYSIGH
# Procedure: P2X3/P2X2/3 FLIPR (Fluorometric Imaging Plate Reader) Assay
# CHO-K1 cells were transfected with cloned rat P2X3 or human P2X2/3 receptor subunits and passaged in flasks. 18-24 hours before the FLIPR experiment, cells were released from their flasks, centrifuged, and resuspended in nutrient medium at 2.5×10^5 cells/ml. The cells were aliquoted into black-walled 96-well plates at a density of 50,000 cells/well and incubated overnight in 5% CO2 at 37° C. On the day of the experiment, cells were washed in FLIPR buffer (calcium- and magnesium-free Hank's balanced salt solution, 10 mM HEPES, 2 mM CaCl2, 2.5 mM probenecid; FB). […]
# Test compounds (dissolved in DMSO at 10 mM and serially diluted with FB) or vehicle were added to each well (25 μl of a 4× solution) and allowed to equilibrate for 20 minutes at room temperature. The plates were then placed in the FLIPR and a baseline fluorescence measurement (excitation at 488 nm and emission at 510-570 nm) was obtained for 10 seconds before a 100 μl/well agonist or vehicle addition. […] Fluorescence was measured for an additional 2 minutes at 1 second intervals after agonist addition. A final addition of ionomycin (5 μM, final concentration) was made to each well of the FLIPR test plate to establish cell viability and maximum fluorescence of dye-bound cytosolic calcium. […]
SMILES,melting point,pIC50 (rat P2X3 receptor)
"CCCc1nnnn1-c1cc(C(=O)NCc2cnc(C)cn2)cc(-c2ccc(Cl)cc2F)c1 [Example 741, 4′-Chloro-2′-fluoro-5-(5-propyl-tetrazol-1-yl)-biphenyl-3-carboxylic acid (5-methyl-pyrazin-2-ylmethyl)-amide]",52 to 55 °C,–
Cc1ccc(-c2cc(C(=O)N[C@@H](C)CO)cc(-n3nnnc3CC(C)C)c2)cc1 [5-(5-isobutyl-tetrazol-1-yl)-4′-methyl-biphenyl-3-carboxylic acid ((S)-2-hydroxy-1-methyl-ethyl)-amide],–,~8.80
"CCCc1nnnn1-c1cc(C(=O)N[C@@H](C)CO)cc(-c2ccc(Cl)cc2F)c1 [Example 742, 4′-Chloro-2′-fluoro-5-(5-propyl-tetrazol-1-yl)-biphenyl-3-carboxylic acid ((S)-2-hydroxy-1-methyl-ethyl)-amide]",58 to 60.3 °C,–
